Experimental data reported in US7683055B2, “Lanthionine-related compounds for the treatment of inflammatory diseases” (Oklahoma Medical Research Foundation, priority 2006, dated 2010).
pKd: −log10 of the molar value.

Experiments:
EOC-20 microglia = assay: TNFα-stimulated nitrite production in EOC-20 microglia (Griess assay); format: cell-based, mouse; conditions: for net suppression of nitrite: TNFα-stimulated, nitrite measured 24 h later
Procedure: Mouse EOC-20 microglia (American Tissue Type Collection, Gaithersville Md. USA) (Hensley et al., 2003; Walker et al., 1995) were grown in DMEM containing 20% L929 fibroblast-supplemented medium. Nitrite production by cytokine stimulated microglia was measured in cell culture medium using the Griess diazotization reaction as previously reported (Hensley et al., 2003; West et al., 2004).
The efficacy of (R)-LKE1 and (R)-LK as inhibitors of microglial cell activation in response to pro-inflammatory cytokines is shown in FIGS. 1A & 1B. EOC-20 murine microglial cells were pretreated 30 minutes with test compounds (e.g. (R)-LK or (R)-LKE1) dissolved in DMSO and diluted 1:200 into cell culture medium; or with DMSO vehicle only. Cells were then challenged with cytokine and allowed to incubate undisturbed in the cell culture incubator for 24 h prior to Griess assay. The lanthionine ketimine ester in this case is the structure shown above as (R)-LKE1. After drug treatment cells were then stimulated with 40 ng/mL recombinant murine tumor necrosis factor alpha (TNF α) plus 50U/mL interferon gamma (IFNγ). Nitrite (NO2^−) was measured in the cell culture medium 24 hours later, as an index of nitric oxide production. Cell viability was then assayed in the same cultures using a commercially available tetrazolium reduction assay (Promega OneStep™; Promega, Gaithersburg Md.). Cell culture methods were those published by the inventor (Hensley et al., 2003; West et al., 2004).
In a EOC-20 microglial assay the cells were stimulated with TNFα in the presence or absence of 100 microM (R)- or (S)-LK, and nitrite was measured 24 h later, the net suppression of nitrite was 13% by (S)-LK and 15% by (R)-LK.
The reduced lanthionine ketimine (i.e., TMDCA) was also tested against TNFα-stimulated nitrite production in the EOC-20 screen.

NSC-34 cells = assay: NSC-34 viability after H2O2 challenge (tetrazolium reduction); format: cell-based, mouse; conditions: for protection against H2O2: 0.5 mM, 6 h pretreatment, 1 mM H2O2, viability 24 h later
Procedure: NSC-34 cells were challenged directly with H2O2 for 24 h and the viability was assessed by tetrazolium reduction assay.
Furthermore, the invention contemplates that cytoprotection might be achieved by providing metabolic precursors to LK, rather than direct addition of the compound. For example, the inventor has studied the effects of NSC-34 cells treated with ethyl pyruvate in the presence or absence of lanthionine for 6 h prior to challenge with H2O2 and has assayed the viability of these cells 24 h later (FIG. 10). As reported in previous studies, ethyl pyruvate alone was protective against peroxide-induced cell death (Desagher et al., 1997; Nakamichi et al., 2005) with complete protection at ethyl pyruvate concentrations >1 mM (approximately 2-fold higher than ambient cell culture medium pyruvate concentrations; data not shown).
(R)-LKE1 protects NSC-34 motoneuron x neuroblastoma hybrid cells from hydrogen peroxide toxicity (FIG. 4). Cells were treated with the indicated concentration of (R)-LKE1. Thirty minutes later cells were challenged with the indicated concentration of hydrogen peroxide. Cell viability was assayed 24 hours later by tetrazolium reduction using a commercially available kit (Promega).
NSC-34 motor neuron-like cells, derived through the fusion of a neuroblastoma cell line with embryonic mouse motor neurons (Cashman et al., 1992), were grown in Dulbeco's modified essential medium (DMEM) plus 5% fetal bovine serum (FBS) and 1% penicillin plus 1% streptomycin (Pen/Strep). Recombinant TNFα and interferon gamma (IFNγ) were purchased from BD Biosciences (Pasadena Calif. USA). Lanthionine was purchased from Sequoia Research Products Ltd. (Pangbourne, UK). All other reagents were of the highest available commercial purity.
NSC-34 cells were exposed to 1 mM H2O2 with or without ethyl-pyruvate and/or lantionine (LK).

synaptosomal membranes = conditions: read-out: affinity of binding to synaptosomal membranes; cited from earlier work
HT4 cells = assay: glutamate toxicity in HT4 cells (LDH leakage); format: cell-based
Procedure: (§1) FIG. 13. (R)-LK protects HT4 cells against excitotoxicity. Determination of cell viability: HT4 cells were seeded in 6 well plates (1×10^7 cell/well). After 24 h, cell media was changed and (R)-LK (in DMSO) was used for 1 h prior to glutamate challenge. Powdered (R)-LK was dissolved in DMSO just before use. The viability of cells in culture was assessed by measuring the leakage of lactate dehydrogenase (LDH) from cells to media 18-24 h following glutamate treatment using the in vitro toxicology assay kit from Sigma Chemical Co. (St. Louis, Mo., USA). LDH leakage was determined using the following equation: % of total LDH leaked=(LDH activity in the cell culture media/total LDH activity) where total LDH activity=LDH activity in cell monolayer+LDH activity of detached cells+LDH activity in the cell culture media.
as §1, with “14. (R)-LKE1” for “13. (R)-LK”, “Determination of cell viability: HT4 cells were seeded in 6 well plates (1×10^7 cell/well). After 24 h, cell media was changed and (R)-LK (in DMSO) was used for 1 h prior to glutamate challenge. Powdered (R)-LK was dissolved in DMSO just before use.” left out, “media. […]” for “media.”

## O=C(O)C1CSCC(C(=O)O)N1 (centres unmarked) [TMDCA, thiomorpholine dicarboxylic acid]
EOC-20 microglia; 100 microM, TNFα-stimulated nitrite production
  inhibition of the cytokine effect: about 32.5%
EOC-20 microglia; 100 microM, TNFα-stimulated nitrite production, +/- SD
  microglial activation, % of the maximum: 67.5+/−3.8%

## O=C(O)C1=N[C@H](C(=O)O)CSC1 [(R)-LK]
EOC-20 microglia; 100 microM
  net suppression of nitrite: 15%
NSC-34 cells; H2O2 challenge 24 h
  protection from H2O2-induced cell death: protects NSC-34 motor-neuron like cells from hydrogen peroxide toxicity

## N[C@@H](CSC[C@H](N)C(=O)O)C(=O)O [lanthionine]
NSC-34 cells
  protection against H2O2: no protective effect

## CCOC(=O)C(C)=O [ethyl pyruvate]
NSC-34 cells
  protection against H2O2: significant but partial protection
NSC-34 cells; data not shown
  concentration giving complete protection against peroxide-induced cell death: > 1 mM

## lanthionine ketimine [LK]
EOC-20 microglia; TNFα-stimulated EOC-20 microglia
  inhibition of nitrite production: inhibited nitrite production
Synaptosomal membranes
  pKd: 7.30
HT4 cells
  glutamate toxicity (LDH release): significantly diminished glutamate toxicity

## O=C(O)C1=CSC[C@H](C(=O)O)N1 [(S)-LK]
EOC-20 microglia; 100 microM
  net suppression of nitrite: 13%
